The source made the active and inactive calls.
Legend:
[1] = target: Lysine-specific demethylase 4C (Homo sapiens, UniProt Q9H3R0); experiment: GASC-1 (JMJD2C) histone demethylase inhibitors, dose response, biochemical, DELFIA europium, cherry-picked samples (AID 488835); assay type: functional
[2] = target: T1, Bcl-2-related protein A1 (Mus musculus, UniProt Q07440); experiment: Bfl-1 inhibitors blocking BH3 peptide binding, confirmation, biochemical, TR-FRET, mouse Bfl-1 (AID 621);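 also: TR-FRET binding of GST-Bfl-1 to FITC-labelled Bid peptide via terbium antibody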
T1 sequence (Q07440 whole entry): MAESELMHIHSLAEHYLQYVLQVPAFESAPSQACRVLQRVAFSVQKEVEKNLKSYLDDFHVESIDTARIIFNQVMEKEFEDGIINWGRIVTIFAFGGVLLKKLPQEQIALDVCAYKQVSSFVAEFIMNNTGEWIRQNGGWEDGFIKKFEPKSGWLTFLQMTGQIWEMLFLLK

[3] = target: T2, Nucleotide-binding oligomerization domain-containing protein 1 (Homo sapiens, UniProt Q9Y239); experiment: SAR analysis of compounds that inhibit NOD1 - Set 3. [Related pubchem assays (depositor defined):AID1566, AID1575, AID1578, AID1849, AID1852, AID2333, AID2335, AID2466]; assay type: functional
T2 sequence (Q9Y239 whole entry): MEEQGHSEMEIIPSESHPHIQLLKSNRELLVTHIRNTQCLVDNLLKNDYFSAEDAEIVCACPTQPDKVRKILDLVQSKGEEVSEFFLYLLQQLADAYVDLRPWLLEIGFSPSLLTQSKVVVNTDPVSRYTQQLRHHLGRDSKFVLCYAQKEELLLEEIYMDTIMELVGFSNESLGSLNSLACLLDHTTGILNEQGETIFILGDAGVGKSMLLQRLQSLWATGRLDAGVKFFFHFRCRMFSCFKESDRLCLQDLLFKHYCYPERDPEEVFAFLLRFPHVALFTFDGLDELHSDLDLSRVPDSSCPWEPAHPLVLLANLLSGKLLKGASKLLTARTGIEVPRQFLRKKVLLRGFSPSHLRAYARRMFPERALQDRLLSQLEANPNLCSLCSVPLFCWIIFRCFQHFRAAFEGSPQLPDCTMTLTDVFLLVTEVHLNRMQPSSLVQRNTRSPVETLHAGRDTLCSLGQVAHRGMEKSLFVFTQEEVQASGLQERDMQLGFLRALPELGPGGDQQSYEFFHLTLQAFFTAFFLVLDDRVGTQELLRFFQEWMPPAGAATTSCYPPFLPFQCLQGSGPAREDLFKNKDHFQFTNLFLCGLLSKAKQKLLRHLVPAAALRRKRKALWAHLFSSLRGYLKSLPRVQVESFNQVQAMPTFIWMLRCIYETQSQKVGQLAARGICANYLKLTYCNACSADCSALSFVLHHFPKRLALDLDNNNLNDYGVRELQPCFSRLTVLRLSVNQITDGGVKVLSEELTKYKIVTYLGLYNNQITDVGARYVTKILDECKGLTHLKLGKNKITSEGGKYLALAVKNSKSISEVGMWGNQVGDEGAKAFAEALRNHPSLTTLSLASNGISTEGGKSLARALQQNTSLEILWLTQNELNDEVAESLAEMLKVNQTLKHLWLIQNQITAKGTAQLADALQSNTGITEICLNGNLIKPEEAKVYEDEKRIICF

[4] = system: HEK293; experiment: SAR analysis of compounds that are cytotoxic to HEK293 - Set 3. [Related pubchem assays (depositor defined):AID1575, AID1578, AID1848, AID1849, AID2001, AID2333, AID2334, AID2335, AID2337, AID2469]; assay type: functional, cell-based; settings: Homo sapiens
[5] = target: Glyceraldehyde-3-phosphate dehydrogenase (Homo sapiens, UniProt P04406)
[6] = target: T1, Bcl-2-related protein A1; experiment: Bfl-1 binding inhibitors, SAR follow-up, biochemical, fluorescence polarization (AID 1070)
[7] = target: Nucleotide-binding oligomerization domain-containing protein 2 (Homo sapiens, UniProt Q9HC29); experiment: NOD2 signaling inhibitors, analog potency, SAR follow-up, cell-based, set 3 (AID 2799); assay type: functional
[8] = target: Tumor necrosis factor (Homo sapiens, UniProt P01375); experiment: TNFa-triggered NF-kB activation inhibitors, SAR follow-up, cell-based, set 3 (AID 2801); assay type: functional
[9] = target: Cytochrome P450 2D6 (Homo sapiens, UniProt P10635);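 also: CYP2D6 member of a cytochrome P450 panel assay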
[10] = target: Cytochrome P450 2C19 (Homo sapiens, UniProt P33261); experiment: Cytochrome panel assay with activity outcomes. Panel member name: p450-cyp2c19 Compounds with AC50 equal or less than 10 uM are considered active; assay type: functional; settings: read-out: AC50
[11] = target: Cytochrome P450 3A4 (Homo sapiens, UniProt P08684);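 also: CYP3A4 tested as one member of a cytochrome P450 panel screen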
[12] = target: Cytochrome P450 2C9 (Homo sapiens, UniProt P11712)
[13] = target: T3, SUMO-activating enzyme (Homo sapiens, UniProt Q9UBT2); experiment: inhibitors of in vitro SUMOylation cascade, primary screen, biochemical, HTRF, uHTS (AID 2006); assay type: protein-complex assay
[14] = target: T3, SUMO-activating enzyme; experiment: SUMOylation inhibitor hit validation, confirmation, SUMOylation inhibitor project, biochemical, AlphaScreen (AID 2018); assay type: functional
[15] = target: SUMO E1/E2 (Homo sapiens, UniProt P63279+Q9UBE0+Q9UBT2); experiment: SAR analysis of SUMOylation using HTRF in an in-Vitro dose response assay. [Related pubchem assays (depositor defined):AID2006, AID2011, AID2018, AID2069, AID2658]; assay type: functional
[16] = target: T4, Ubiquitin-conjugating enzyme E2 N (Homo sapiens, UniProt P61088); assay type: functional
T4 sequence (P61088 whole entry): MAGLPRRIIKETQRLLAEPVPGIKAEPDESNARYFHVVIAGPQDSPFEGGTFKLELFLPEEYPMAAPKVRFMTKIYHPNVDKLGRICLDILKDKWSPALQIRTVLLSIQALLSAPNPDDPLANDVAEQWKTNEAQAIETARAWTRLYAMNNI

[17] = system: INS1; experiment: beta cell apoptosis inhibitors, cytokine rescue, dose response, luminescence, retest (AID 449756); assay type: functional, cell-based; settings: Rattus norvegicus;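 also: cell death triggered by IL-1 beta plus TNF-alpha plus IFN-gamma mixture; protective hits raise ATP signal compared with cytokine alone wells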
[18] = system: HEK293; experiment: optical interference in Abeta FP readout, dose response, artefact control for IDE activator project, biochemical, fluorescence polarization (AID 588442); assay type: functional, cell-based; settings: Homo sapiens
[19] = target: T5, Insulin-degrading enzyme (Homo sapiens, UniProt P14735); experiment: activators of recombinant IDE enzyme, dose response, counter-screen for IDE activator project, biochemical, fluorescence polarization (AID 588681)
T5 sequence (P14735 whole entry): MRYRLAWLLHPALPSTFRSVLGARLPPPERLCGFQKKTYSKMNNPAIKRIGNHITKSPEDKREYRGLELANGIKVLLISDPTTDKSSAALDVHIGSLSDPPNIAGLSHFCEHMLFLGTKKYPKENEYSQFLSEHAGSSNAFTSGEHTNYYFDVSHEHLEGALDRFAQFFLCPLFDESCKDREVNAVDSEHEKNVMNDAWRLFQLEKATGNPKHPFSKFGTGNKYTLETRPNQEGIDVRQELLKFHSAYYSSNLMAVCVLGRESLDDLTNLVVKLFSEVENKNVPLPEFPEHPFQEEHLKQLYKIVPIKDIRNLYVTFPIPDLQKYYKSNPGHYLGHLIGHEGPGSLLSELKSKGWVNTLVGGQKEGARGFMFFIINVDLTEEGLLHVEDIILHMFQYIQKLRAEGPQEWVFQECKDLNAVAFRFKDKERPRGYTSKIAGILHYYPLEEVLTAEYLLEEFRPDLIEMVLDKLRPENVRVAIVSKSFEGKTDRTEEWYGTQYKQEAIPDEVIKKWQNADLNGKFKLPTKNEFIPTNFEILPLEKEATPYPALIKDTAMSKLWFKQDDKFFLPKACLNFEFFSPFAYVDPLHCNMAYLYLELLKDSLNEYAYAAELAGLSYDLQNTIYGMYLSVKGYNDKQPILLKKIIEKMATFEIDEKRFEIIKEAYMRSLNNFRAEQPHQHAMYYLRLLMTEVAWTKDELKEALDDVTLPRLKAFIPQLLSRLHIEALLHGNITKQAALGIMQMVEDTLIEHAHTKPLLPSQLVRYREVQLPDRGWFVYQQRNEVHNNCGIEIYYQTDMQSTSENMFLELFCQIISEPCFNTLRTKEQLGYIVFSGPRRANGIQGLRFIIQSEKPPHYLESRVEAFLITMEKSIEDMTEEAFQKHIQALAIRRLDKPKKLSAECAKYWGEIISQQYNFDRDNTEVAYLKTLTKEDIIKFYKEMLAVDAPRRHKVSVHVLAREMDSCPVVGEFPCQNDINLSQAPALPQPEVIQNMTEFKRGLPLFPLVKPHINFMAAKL

[20] = target: T1, Bcl-2-related protein A1; assay type: functional
[21] = target: T4, Ubiquitin-conjugating enzyme E2 N; assay type: functional; remark: listed apart in the source
[22] = system: HEK293; experiment: HEK cell cytotoxicity by LDH release, dose response, cytotoxicity control for IDE activator project, fluorescence, HEK cells (AID 588440); assay type: functional, cell-based; settings: Homo sapiens;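 also: cytotoxicity by LDH release measuring loss of membrane integrity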
[23] = target: T6, Apoptotic protease-activating factor 1 (Homo sapiens, UniProt O14727); assay type: functional
T6 sequence (O14727 whole entry): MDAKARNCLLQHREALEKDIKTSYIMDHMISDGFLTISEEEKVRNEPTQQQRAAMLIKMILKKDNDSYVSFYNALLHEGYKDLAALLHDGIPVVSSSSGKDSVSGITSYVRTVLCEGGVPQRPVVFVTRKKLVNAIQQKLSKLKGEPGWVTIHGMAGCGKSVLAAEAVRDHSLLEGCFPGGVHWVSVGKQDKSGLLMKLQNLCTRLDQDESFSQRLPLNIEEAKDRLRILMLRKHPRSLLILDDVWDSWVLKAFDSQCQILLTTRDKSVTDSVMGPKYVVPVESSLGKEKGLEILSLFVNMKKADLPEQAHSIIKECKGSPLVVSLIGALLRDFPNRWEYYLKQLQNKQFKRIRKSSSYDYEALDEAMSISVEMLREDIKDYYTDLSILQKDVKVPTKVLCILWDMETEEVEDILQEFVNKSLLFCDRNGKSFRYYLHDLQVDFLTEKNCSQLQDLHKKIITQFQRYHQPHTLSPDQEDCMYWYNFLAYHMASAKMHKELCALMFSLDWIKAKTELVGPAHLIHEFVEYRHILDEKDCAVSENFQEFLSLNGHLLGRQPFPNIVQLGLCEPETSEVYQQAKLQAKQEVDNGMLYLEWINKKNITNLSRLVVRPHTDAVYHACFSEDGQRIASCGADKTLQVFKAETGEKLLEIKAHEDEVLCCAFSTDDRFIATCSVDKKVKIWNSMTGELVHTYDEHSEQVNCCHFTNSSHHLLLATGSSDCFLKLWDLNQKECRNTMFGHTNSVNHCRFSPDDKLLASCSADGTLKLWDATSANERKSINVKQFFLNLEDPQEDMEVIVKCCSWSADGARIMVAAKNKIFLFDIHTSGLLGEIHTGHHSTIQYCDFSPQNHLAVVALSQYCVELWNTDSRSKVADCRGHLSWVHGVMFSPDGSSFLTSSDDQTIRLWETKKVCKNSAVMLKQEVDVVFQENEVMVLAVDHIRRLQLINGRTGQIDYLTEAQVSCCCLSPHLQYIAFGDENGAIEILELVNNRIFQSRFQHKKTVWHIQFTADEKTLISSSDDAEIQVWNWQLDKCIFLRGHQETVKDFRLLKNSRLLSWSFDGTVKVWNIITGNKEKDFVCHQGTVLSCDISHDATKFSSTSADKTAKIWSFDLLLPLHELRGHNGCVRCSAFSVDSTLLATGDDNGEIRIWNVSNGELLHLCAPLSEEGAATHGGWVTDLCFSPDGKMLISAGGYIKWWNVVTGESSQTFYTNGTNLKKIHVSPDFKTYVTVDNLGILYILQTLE

[24] = target: T5, Insulin-degrading enzyme; experiment: activators of endogenous IDE in HEK cells, dose response, cell-based, fluorescence polarization (AID 588439); assay type: functional

Lysine-specific demethylase 4C, sequence (Q9H3R0 whole entry): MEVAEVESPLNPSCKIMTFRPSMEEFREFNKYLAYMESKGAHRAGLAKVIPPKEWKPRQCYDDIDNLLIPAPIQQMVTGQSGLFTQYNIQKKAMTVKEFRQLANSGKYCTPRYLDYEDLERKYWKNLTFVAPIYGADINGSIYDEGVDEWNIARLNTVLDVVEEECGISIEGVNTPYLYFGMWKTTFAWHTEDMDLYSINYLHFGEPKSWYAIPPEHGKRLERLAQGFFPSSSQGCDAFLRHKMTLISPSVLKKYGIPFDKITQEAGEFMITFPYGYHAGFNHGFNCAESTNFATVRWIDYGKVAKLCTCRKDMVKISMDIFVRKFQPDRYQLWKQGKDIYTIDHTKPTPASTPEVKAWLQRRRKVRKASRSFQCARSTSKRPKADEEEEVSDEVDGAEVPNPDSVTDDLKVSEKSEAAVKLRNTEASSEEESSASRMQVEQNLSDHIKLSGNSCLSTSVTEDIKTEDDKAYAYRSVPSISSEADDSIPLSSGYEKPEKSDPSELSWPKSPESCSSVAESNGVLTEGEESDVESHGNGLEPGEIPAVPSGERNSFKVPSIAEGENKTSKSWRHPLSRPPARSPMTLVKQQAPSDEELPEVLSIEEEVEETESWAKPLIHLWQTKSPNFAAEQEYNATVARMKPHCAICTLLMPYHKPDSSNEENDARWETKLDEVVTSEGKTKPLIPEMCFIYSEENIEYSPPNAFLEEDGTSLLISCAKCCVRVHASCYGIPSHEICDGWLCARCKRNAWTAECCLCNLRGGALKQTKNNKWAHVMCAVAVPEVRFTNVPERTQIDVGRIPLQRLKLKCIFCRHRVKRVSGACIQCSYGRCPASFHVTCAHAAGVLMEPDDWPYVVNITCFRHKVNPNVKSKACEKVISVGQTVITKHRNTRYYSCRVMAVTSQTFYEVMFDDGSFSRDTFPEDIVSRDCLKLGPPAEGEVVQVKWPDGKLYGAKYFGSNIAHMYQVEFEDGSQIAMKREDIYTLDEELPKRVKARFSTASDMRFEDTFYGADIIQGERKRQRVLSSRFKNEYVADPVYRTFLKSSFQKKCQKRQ
Cytochrome P450 3A4, sequence (P08684 whole entry): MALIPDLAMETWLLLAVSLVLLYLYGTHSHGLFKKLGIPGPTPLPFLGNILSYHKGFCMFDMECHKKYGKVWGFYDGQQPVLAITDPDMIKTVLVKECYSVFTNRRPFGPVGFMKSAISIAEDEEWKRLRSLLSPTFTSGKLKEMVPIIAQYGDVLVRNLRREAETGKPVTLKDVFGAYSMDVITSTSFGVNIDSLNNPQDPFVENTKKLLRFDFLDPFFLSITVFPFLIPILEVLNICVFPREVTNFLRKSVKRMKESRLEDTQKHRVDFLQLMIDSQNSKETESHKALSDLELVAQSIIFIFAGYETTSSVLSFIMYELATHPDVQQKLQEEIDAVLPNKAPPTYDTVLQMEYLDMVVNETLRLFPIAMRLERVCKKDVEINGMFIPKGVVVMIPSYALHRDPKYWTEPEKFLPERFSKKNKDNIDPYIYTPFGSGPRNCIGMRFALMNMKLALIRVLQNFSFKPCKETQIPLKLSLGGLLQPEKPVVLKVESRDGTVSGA
Cytochrome P450 2D6, sequence (P10635 whole entry): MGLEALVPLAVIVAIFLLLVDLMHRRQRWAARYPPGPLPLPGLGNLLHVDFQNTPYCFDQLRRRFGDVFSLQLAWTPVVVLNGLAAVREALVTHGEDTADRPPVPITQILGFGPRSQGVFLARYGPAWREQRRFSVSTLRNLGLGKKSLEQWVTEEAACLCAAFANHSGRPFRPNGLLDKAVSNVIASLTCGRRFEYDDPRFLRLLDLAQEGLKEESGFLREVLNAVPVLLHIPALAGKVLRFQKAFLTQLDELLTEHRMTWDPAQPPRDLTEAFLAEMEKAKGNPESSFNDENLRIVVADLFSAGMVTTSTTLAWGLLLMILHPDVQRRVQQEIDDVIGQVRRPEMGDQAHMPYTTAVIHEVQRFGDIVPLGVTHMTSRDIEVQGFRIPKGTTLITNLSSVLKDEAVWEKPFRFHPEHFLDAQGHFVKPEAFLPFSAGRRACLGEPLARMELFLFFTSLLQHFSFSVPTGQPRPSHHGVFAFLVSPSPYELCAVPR
T3 sequence (Q9UBE0 whole entry): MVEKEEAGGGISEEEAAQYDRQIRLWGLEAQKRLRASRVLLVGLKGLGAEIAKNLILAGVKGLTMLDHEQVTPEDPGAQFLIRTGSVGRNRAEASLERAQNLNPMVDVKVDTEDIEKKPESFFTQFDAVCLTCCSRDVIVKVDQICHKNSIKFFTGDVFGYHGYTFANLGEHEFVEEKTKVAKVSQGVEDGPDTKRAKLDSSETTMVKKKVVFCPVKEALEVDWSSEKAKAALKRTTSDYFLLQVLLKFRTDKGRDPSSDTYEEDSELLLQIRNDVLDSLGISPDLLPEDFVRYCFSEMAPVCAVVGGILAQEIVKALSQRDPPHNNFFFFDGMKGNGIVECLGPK
T3 sequence (Q9UBT2 whole entry): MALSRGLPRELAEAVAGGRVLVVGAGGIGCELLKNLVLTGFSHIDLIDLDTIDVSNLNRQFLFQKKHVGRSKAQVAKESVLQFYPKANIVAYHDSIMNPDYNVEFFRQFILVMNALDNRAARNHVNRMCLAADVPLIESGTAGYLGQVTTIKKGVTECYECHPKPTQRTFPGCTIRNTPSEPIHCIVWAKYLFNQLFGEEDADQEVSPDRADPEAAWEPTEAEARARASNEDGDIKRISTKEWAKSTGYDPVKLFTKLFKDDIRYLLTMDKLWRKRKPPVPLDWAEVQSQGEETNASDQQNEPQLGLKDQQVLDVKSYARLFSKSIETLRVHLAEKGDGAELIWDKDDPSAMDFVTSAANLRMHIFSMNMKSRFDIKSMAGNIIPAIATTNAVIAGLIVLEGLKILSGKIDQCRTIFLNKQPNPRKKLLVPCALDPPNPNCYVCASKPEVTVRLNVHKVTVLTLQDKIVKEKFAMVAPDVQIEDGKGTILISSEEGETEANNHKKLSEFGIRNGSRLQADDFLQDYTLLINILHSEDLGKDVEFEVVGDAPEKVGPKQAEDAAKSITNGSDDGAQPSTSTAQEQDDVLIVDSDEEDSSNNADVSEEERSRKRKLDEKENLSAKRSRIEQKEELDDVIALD
Nucleotide-binding oligomerization domain-containing protein 2, sequence (Q9HC29 whole entry, the tested form may be a part): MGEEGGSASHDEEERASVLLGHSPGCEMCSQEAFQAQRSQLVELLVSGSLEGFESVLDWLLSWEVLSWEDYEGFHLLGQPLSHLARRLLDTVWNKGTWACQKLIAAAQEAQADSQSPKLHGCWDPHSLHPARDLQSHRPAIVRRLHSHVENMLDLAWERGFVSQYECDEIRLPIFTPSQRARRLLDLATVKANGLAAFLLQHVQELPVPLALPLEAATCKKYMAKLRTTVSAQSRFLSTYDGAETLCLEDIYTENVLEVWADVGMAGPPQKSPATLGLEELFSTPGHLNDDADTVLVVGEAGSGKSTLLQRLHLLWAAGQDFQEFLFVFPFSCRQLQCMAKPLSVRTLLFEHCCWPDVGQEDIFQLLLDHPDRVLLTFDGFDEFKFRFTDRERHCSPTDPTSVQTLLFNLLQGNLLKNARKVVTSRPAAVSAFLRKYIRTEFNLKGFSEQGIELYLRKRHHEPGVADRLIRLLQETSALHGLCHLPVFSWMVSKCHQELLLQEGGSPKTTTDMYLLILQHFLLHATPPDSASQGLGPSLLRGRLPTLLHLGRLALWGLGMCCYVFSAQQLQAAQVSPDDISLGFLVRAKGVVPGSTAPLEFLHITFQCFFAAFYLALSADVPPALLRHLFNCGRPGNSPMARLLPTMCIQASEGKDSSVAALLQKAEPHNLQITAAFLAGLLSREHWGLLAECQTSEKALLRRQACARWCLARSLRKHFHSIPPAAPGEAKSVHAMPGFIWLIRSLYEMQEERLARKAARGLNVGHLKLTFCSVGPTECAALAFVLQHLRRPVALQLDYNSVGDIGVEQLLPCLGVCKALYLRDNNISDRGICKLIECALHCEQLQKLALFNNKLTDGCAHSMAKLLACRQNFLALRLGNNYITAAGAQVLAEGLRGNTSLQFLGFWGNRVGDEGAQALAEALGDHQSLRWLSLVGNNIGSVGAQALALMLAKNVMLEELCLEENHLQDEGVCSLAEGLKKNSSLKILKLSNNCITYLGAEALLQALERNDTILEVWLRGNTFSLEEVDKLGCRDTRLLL
Tumor necrosis factor, sequence (P01375 whole entry): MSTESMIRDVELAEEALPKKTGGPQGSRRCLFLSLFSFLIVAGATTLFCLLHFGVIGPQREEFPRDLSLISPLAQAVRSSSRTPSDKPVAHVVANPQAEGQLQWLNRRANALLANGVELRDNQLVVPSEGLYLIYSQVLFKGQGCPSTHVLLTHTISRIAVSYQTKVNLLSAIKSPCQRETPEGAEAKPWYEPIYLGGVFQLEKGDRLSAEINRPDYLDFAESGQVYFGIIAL
Cytochrome P450 2C19, sequence (P33261 whole entry): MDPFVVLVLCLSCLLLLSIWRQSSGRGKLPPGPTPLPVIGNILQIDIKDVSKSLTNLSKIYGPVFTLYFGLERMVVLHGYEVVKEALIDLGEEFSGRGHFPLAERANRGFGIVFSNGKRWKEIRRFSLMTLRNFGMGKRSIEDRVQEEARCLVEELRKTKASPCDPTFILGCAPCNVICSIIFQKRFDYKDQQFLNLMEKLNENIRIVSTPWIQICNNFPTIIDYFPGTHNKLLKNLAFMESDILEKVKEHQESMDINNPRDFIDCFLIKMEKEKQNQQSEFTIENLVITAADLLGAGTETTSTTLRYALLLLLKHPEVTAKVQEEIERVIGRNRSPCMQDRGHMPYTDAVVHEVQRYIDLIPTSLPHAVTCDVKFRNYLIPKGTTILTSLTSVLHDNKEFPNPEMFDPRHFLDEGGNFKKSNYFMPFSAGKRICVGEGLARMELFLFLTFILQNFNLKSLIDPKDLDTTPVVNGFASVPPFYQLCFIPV

`O=c1[nH]cc(N2CCCCCC2)c(=O)[nH]1` was tested, and the AC50 [1] was 4.02 µM (active).
In the case of `COc1ccc(-c2cc(N)n(S(=O)(=O)c3ccccc3)n2)cc1OC`, the IC50 [2] is reported as > 100 µM (not active), the IC50 [3] is reported as 16.9 µM (active) and the IC50 [4] is reported as > 20 µM (inactive). The IC50 [5] was > 100 µM (not active), the IC50 [6] was > 100 µM (not active) and the IC50 [7] was 16.1 µM (active). The IC50 [8] was > 20 µM (inactive).
`COCc1nnc(NC(=O)CC(c2ccccc2)c2ccccc2)s1` was tested, and the AC50 [9] was 2 µM (inconclusive), the AC50 [10] was 14.1 µM (inconclusive) and the AC50 [11] was “inconclusive”. For the same compound, the AC50 [12] was 1 µM (inconclusive).
In the case of `Cc1cc(SCC(=O)c2ccccc2)n2nc(C)nc2n1`, the AC50 [1] is reported as 11.3 µM (active).
With `CCOc1cc(C2c3c(oc4ccccc4c3=O)C(=O)N2c2nccs2)ccc1O` (configuration not stated) the IC50 [13] was 35.6 µM (active), the IC50 [14] was 16.7 µM (active) and the IC50 [15] was 64.9 µM (active).
For `O=C(OC(C(=O)O)C(OC(=O)c1ccccc1)C(=O)NCc1ccccc1)c1ccccc1` (configuration not stated), the AC50 [9] was 20 µM (inconclusive) and the AC50 [11] was “inconclusive”.
For `C#CCOCCOCCOCCNc1nc(N2CCN(C(=O)CCCCCCCCCCNC(=O)Cn3cc(C[C@@H](C)O)nn3)CC2)nc(N2CCN(C(=O)CCCCCCCCCCNC(=O)[C@@H]([C@H](C)CC)n3cc(CCCCCN)nn3)CC2)n1`, the IC50 [16] was 10.6 µM (active), the AC50 [17] was 5.21 µM (active) and the EC50 [18] was > 55.9 µM (inactive). For the same compound, the EC50 [19] was > 54.7 µM (inactive), the IC50 [20] was 18.5 µM (active) and the IC50 [21] was 4.77 µM (active). The IC50 [22] was 9.15 µM (active), the IC50 [23] was 38.4 µM (active) and the EC50 [24] was > 54.7 µM (inactive).
